Test results taken from patent US10894807B2 (Siemens Medical Solutions USA, Inc., priority 2011, dated 2021).
Where a SMILES comes first, the peptide text is derived from it. [ ]: non-standard residue; d: D form. The star is where a group is joined. Boc = CC(C)(C)OC(=O)*; Nlys = NCCCCNCC(=O)O

Target: human PSMA (Homo sapiens (Human), UniProt Q04609)
Assay: Enzymatic assay for in vitro evaluation of PSMA inhibitors (fluorescent assay of PSMA activity, NAAG substrate, OPA detection of glutamate)
Type: biochemical
Settings: for PSMA Blkg % (10 μM): compound at 10 μM
Protocol: Enzymatic Assay for In Vitro Evaluation of PSMA Inhibitors
The inhibitory activity of all compounds was determined using a fluorescent assay of human PSMA activity. The enzyme used in the assay was purchased from R&D Systems and stored at −80° C. The PSMA activity was assayed in a two-step process. In the first step, aliquots of enzyme (0.2 μg/mL) were incubated for 1 h at 37° C. in 50 mM HEPES, 0.1 M NaCl, pH 7.5, in the presence of 20 μM NAAG and the given inhibitor, in a volume of 250 μL, to allow for the accumulation of glutamate produced in the PSMA reaction. In the second step, the amount of accumulated glutamate was measured using the OPA reaction, and the fluorescence was read with a SpectraMax fluorescent plate reader using excitation at 330 nm and emission at 450 nm. The final Ki values for each inhibitor were calculated from the respective IC50 values using the Cheng and Prusoff equation.

human PSMA, sequence (Q04609 whole entry): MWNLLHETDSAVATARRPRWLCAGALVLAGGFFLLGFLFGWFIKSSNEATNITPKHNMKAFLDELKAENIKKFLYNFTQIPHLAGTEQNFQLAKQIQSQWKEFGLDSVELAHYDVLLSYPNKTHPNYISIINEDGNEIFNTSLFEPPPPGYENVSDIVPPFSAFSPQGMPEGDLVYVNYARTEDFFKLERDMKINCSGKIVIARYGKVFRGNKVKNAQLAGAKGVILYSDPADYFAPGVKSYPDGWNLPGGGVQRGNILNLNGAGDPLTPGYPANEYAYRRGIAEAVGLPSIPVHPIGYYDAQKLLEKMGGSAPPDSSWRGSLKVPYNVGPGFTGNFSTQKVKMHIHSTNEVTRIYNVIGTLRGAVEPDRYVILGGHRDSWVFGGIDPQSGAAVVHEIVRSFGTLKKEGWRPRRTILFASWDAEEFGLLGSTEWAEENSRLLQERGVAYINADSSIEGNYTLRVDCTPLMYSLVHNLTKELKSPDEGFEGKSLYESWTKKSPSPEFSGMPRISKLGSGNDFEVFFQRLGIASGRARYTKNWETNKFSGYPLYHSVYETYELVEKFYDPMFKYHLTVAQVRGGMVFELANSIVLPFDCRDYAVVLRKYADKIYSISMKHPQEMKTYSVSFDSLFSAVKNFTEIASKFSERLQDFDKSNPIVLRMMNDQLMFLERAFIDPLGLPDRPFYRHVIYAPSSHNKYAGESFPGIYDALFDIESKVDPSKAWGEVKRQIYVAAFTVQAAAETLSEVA

O=C(O)CC[C@H](NC(=O)N[C@@H](CCCCNC(=O)CCCn1cc(CCCF)nn1)C(=O)O)C(=O)O [P045, (S)-2-(3-((S)-1-Carboxy-5-(4-(4-(3-fluoropropyl)-1H-1,2,3-triazol-1-yl)-butanamido)pentyl)ureido)pentanedioic Acid]
Ki: 10.9 nM | PSMA Blkg % (10 μM): 95%

CN(C(=O)N[C@@H](CCC(=O)O)C(=O)O)[C@@H](CCCCNC(=O)CCCn1cc(CCCF)nn1)C(=O)O [P046, (S)-2-(3-((S)-1-Carboxy-5-(4-(4-(3-fluoropropyl)-1H-1,2,3-triazol-1-yl)-butanamido)pentyl)-3-methylureido)pentanedioic Acid]
Ki: 328 nM | PSMA Blkg % (10 μM): 80%

CC(C)(C)OC(=O)NCCCCN(CC(=O)N[C@@H](CCC(=O)O)C(=O)O)C(N)=O [P047, (S)-2-(2-(1-(4-(tert-Butoxycarbonylamino)butyl)ureido)acetamido)pentanedioic Acid]
PSMA Blkg % (10 μM): 0%

CC(C)(C)OC(=O)NCCCCN(CC(=O)N[C@@H](CCC(=O)O)C(=O)O)C(=O)NC(N)=O [P048, (S)-2-(2-(1-(4-(tert-Butoxycarbonylamino)butyl)-3-carbamoylureido)acetamido) pentanedioic Acid]
PSMA Blkg % (10 μM): 0%

CC(C)(C)OC(=O)NCCCCN(CC(=O)O)CC(=O)N[C@@H](CCC(=O)O)C(=O)O [P049, (S)-2-(2-((4-(tert-Butoxycarbonylamino)butyl)(carboxymethyl)amino)acetamido) pentanedioic Acid]
PSMA Blkg % (10 μM): 0%

CC(C)(C)OC(=O)NCCCCN1CC(=O)N([C@@H](CCC(=O)O)C(=O)O)C(=O)C1 [P050, (S)-2-(4-(4-(tert-Butoxycarbonylamino)butyl)-2,6-dioxopiperazin-1-yl)pentanedioic Acid]
PSMA Blkg % (10 μM): 0%

CC(C)(C)OC(=O)NCCCCNCC(=O)N[C@@H](CCC(=O)O)C(=O)O [P051, (S)-2-(2-(4-(tert-Butoxycarbonylamino)butylamino)acetamido)pentanedioic Acid] (H-[Nlys](Boc)-Glu-OH)
PSMA Blkg % (10 μM): 4%

CCS(=O)(=O)N(CCc1ccccc1)CC(=O)NC(CCC(=O)O)C(=O)O (centres unmarked) [P052, 2-(2-(N-Phenethylethylsulfonamido)acetamido)pentanedioic Acid]
PSMA Blkg % (10 μM): 2%

CN(C(=O)N[C@@H](CCC(=O)O)C(=O)O)[C@@H](CCCCNC(=O)c1ccc(-n2cc(CCCF)nn2)cc1)C(=O)O [P053, (S)-2-(3-((S)-1-Carboxy-5-(4-(4-(3-fluoropropyl)-1H-1,2,3-triazol-1-yl)benzamido)pentyl)-3-methylureido)pentanedioic Acid]
Ki: 31.3 nM | PSMA Blkg % (10 μM): 94%

O=C(O)CC[C@H](NC(=O)N[C@@H](CCCCNC(=O)c1ccc(-n2cc(CCCF)nn2)cc1)C(=O)O)C(=O)O [P054]
Ki: 1.6 nM | PSMA Blkg % (10 μM): 100%

O=C(O)CC[C@@H](C(=O)O)N1C(=O)CC(=O)N([C@@H](CCCCNC(=O)OCc2ccccc2)C(=O)O)C1=O [P055, (S)-2-(3-((S)-5-(Benzyloxycarbonylamino)-1-carboxypentyl)-2,4,6-trioxotetrahydropyrimidin-1(2H)-yl)pentanedioic Acid]
Ki: 344 nM | PSMA Blkg % (10 μM): 94%

O=C(O)CC[C@H](NC(=O)NNC(=O)OCc1ccccc1)C(=O)O [P056, (S)-2-(2-((Benzyloxy)carbonyl)hydrazinecarboxamido)pentanedioic Acid]
PSMA Blkg % (10 μM): 0%

[N-]=[N+]=Nc1ccc(C(=O)NCCCC[C@@H](C(=O)O)N2C(=O)CC(=O)N([C@@H](CCC(=O)O)C(=O)O)C2=O)cc1 [P057, (S)-2-(3-((S)-5-(4-Azidobenzamido)-1-carboxypentyl)-2,4,6-trioxotetrahydropyrimidin-1(2H)-yl)pentanedioic Acid]
PSMA Blkg % (10 μM): 32%

[N-]=[N+]=Nc1ccc(C(=O)NCCCC[C@H](NC(=O)N[C@@H](CCC(=O)O)C(=O)O)C(=O)O)cc1 [P058, (S)-2-(3-((S)-5-(4-Azidobenzamido)-1-carboxypentyl)ureido)pentanedioic Acid]
PSMA Blkg % (10 μM): 100%

CN(C(=O)N[C@@H](CCC(=O)O)C(=O)O)[C@@H](CCCCNC(=O)c1ccc(N=[N+]=[N-])cc1)C(=O)O [P059, (S)-2-(3-((S)-5-(4-Azidobenzamido)-1-carboxypentyl)-3-methylureido)pentanedioic Acid]
Ki: 12.5 nM | PSMA Blkg % (10 μM): 99%

O=C(O)CCC(NC(=O)N[C@@H](CCC(=O)O)C(=O)O)C(=O)O (some centres unmarked) [P060]
PSMA Blkg % (10 μM): 96%

NNC(=O)N[C@@H](CCC(=O)O)C(=O)O [P061, (S)-2-(Hydrazinecarboxamido)pentanedioic Acid]
PSMA Blkg % (10 μM): 0%

[N-]=[N+]=NCCCC(=O)Nc1ccc(C[C@H](NC(=O)N[C@@H](CCC(=O)O)C(=O)O)C(=O)O)cc1 [P062, (S)-2-(3-((S)-2-(4-(4-Azidobutaneamido)phenyl)-1-carboxyethyl)-ureido)-pentanedioic Acid]
PSMA Blkg % (10 μM): 97%

CN(C(=O)N[C@@H](CCC(=O)O)C(=O)O)[C@@H](Cc1ccc(NC(=O)CCCN=[N+]=[N-])cc1)C(=O)O [P063, (S)-2-(3-((S)-2-(4-(4-Azidobutaneamido)phenyl)-1-carboxyethyl)-3-methylureido)-pentanedioic Acid]
PSMA Blkg % (10 μM): 30%

O=C(O)CC[C@@H](C(=O)O)N1C(=O)CC(=O)N([C@@H](CCCCNC(=O)c2ccc(-n3cc(CCCF)nn3)cc2)C(=O)O)C1=O [P064, (S)-2-(3-((S)-1-Carboxy-5-(4-(4-(3-fluoropropyl)-1H-1,2,3-triazol-1-yl)benzamido)pentyl)-2,4,6-trioxotetrahydropyrimidin-1(2H)-yl)pentanedioic Acid]
PSMA Blkg % (10 μM): 46%

CC(=O)N(CCCCN1C(=O)c2ccccc2C1=O)NC(=O)N[C@@H](CCC(=O)O)C(=O)O [P066, (S)-2-(2-Acetyl-2-(4-(1,3-dioxoisoindolin-2-yl)butyl)hydrazinecarboxamido)-pentanedioic Acid]
PSMA Blkg % (10 μM): 12%

O=C(O)CC[C@H](NC(=O)N[C@@H](Cc1ccc(NC(=O)CCCCCn2cc(CCCF)nn2)cc1)C(=O)O)C(=O)O [P067, (S)-2-(3-((S)-1-Carboxy-2-(4-(6-(4-(3-fluoropropyl)-1H-1,2,3-triazol-1-yl)hexamido)phenyl)ethyl)ureido)pentanedioic Acid]
PSMA Blkg % (10 μM): 52%

CN(C(=O)N[C@@H](CCC(=O)O)C(=O)O)[C@@H](Cc1ccc(NC(=O)CCCCCn2cc(CCCF)nn2)cc1)C(=O)O [P068]
PSMA Blkg % (10 μM): 27%

O=C(O)CC[C@H](NC(=O)N(O)C(CCCCNC(=O)OCc1ccccc1)C(=O)O)C(=O)O (stereo partly drawn) [P069, (13S)-10-Hydroxy-3,11-dioxo-1-phenyl-2-oxa-4,10,12-triazapentadecane-9,13,15-tricarboxylic Acid]
Ki: 250 nM | PSMA Blkg % (10 μM): 94%

O=C(O)CC[C@H](NC(=S)NC(CCCCNC(=O)OCc1ccccc1)C(=O)O)C(=O)O (stereo partly drawn) [P070, (13S)-3-Oxo-1-phenyl-11-thioxo-2-oxa-4,10,12-triazapentadecane-9,13,15-tricarboxylic Acid]
Ki: 59 nM | PSMA Blkg % (10 μM): 94%

O=C(O)CC[C@H](NC(=S)N(O)C(CCCCNC(=O)OCc1ccccc1)C(=O)O)C(=O)O (stereo partly drawn) [P071, (13S)-10-Hydroxy-3-oxo-1-phenyl-11-thioxo-2-oxa-4,10,12-triazapentadecane-9,13,15-tricarboxylic Acid]
Ki: 31 nM | PSMA Blkg % (10 μM): 96%

O=C(O)CC[C@@H](C(=O)O)N1C(=O)C(=O)N([C@@H](CCCCNC(=O)OCc2ccccc2)C(=O)O)C1=O [P072, (S)-2-(3-((S)-5-(Benzyloxycarbonylamino)-1-carboxypentyl)-2,4,5-trioxoimidazolidin-1-yl)pentanedioic Acid]
PSMA Blkg % (10 μM): 39%

[N-]=[N+]=NCCCCC(=O)NCCCC[C@@H](C(=O)O)N1C(=O)CC(=O)N([C@@H](CCC(=O)O)C(=O)O)C1=O [P073, (S)-2-(3-((S)-5-(5-Azidopentanamido)-1-carboxypentyl)-2,4,6-trioxotetrahydropyrimidin-1(2H)-yl)pentanedioic Acid]
PSMA Blkg % (10 μM): 2%

O=C(O)CC[C@@H](C(=O)O)N1C(=O)CC(=O)N([C@@H](CCCCNC(=O)Cn2cc(CCCF)nn2)C(=O)O)C1=O [P074, (S)-2-(3-((S)-1-Carboxy-5-(2-(4-(3-fluoropropyl)-1H-1,2,3-triazol-1-yl)acetamido)pentyl)-2,4,6-trioxotetrahydropyrimidin-1(2H)-yl)pentanedioic Acid]
PSMA Blkg % (10 μM): 10%

O=C(O)CC[C@H](NC(=O)N1CCC[C@H]1C(=O)O)C(=O)O [P075, (S)-2-((S)-2-Carboxypyrrolidine-1-carboxamido)pentanedioic Acid]
PSMA Blkg % (10 μM): 32%

O=C(O)CC[C@@H](C(=O)O)N1C(=O)CC(=O)N([C@@H](CCCCNC(=O)CCCCn2cc(CCCF)nn2)C(=O)O)C1=O [P076, (S)-2-(3-((S)-1-Carboxy-5-(5-(4-(3-fluoropropyl)-1H-1,2,3-triazol-1-yl)pentanamido)pentyl)-2,4,6-trioxotetrahydropyrimidin-1(2H)-yl)pentanedioic Acid]
PSMA Blkg % (10 μM): 14%

CC1(C)C(=O)N([C@@H](CCCCNC(=O)OCc2ccccc2)C(=O)O)C(=O)N([C@@H](CCC(=O)O)C(=O)O)C1=O [P077, (S)-2-(3-((S)-5-(Benzyloxycarbonylamino)-1-carboxypentyl)-5,5-dimethyl-2,4,6-trioxotetrahydropyrimidin-1(2H)-yl)pentanedioic Acid]
PSMA Blkg % (10 μM): 28%
